Laboratory results published in ChEMBL document CHEMBL1127202, “Endothelin receptor ligands. replacement net approach to SAR determination of potent hexapeptides” (Bioorg Med Chem Lett, 1993).
pIC50: −log10 of the molar value. Residues, ends and D or L forms follow the SMILES beside them.

Columns and labels:
Endothelin-1 receptor [1] = target: T1, Endothelin-1 receptor (Mus musculus, UniProt Q61614); experiment: Inhibition of [125I]ET1 binding to Endothelin A receptor of murine 3T3 cells; assay type: cell-based, NIH3T3
T1 sequence (Q61614 whole entry): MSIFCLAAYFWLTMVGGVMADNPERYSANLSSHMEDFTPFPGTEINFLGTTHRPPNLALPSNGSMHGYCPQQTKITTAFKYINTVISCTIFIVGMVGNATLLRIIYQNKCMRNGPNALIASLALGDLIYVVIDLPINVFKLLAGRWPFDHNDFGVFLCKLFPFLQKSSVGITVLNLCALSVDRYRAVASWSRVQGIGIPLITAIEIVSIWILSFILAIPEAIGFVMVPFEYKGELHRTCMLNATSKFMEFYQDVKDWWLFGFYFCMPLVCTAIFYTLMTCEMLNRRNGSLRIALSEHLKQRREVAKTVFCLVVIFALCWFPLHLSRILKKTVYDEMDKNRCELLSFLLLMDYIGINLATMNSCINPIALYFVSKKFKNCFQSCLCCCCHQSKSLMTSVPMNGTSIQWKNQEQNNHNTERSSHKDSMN

Endothelin-1 receptor [2] = target: T2, Endothelin-1 receptor (Homo sapiens, UniProt P25101); experiment: The inhibitory constant was evaluated against Endothelin A receptor
T2 sequence (P25101 whole entry): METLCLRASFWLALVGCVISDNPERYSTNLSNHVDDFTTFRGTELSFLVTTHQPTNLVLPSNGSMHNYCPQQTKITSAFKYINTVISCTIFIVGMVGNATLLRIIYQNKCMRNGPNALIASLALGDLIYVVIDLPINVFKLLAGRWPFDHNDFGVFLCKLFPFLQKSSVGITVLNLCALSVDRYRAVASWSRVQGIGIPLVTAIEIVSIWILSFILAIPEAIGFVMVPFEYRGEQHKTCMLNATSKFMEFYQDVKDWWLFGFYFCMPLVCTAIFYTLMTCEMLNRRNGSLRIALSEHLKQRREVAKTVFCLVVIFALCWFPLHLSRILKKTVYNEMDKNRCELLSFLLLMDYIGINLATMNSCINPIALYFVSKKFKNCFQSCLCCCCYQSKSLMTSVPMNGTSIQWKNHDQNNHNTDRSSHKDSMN

Endothelin-1 receptor [3] = target: T1, Endothelin-1 receptor; experiment: The compound was tested for the binding affinity against eEndothelin A receptor in murine 3T3 cells using [125I]ET1 as a radioligand; assay type: cell-based, NIH3T3

Row | Structure (SMILES) | pIC50 (Endothelin-1 receptor [1]) | further results
1 | CC[C@H](C)[C@H](NC(=O)[C@H](CC(=O)O)NC(=O)[C@H](CCCN)NC(=O)[C@@H](Cc1c[nH]c2ccccc12)NC(C)=O)C(=O)N[C@H](C(=O)N[C@@H](Cc1c[nH]c2ccccc12)C(=O)O)[C@@H](C)CC | 7.82 | –
2 | CC[C@H](C)[C@H](NC(=O)[C@H](CC(=O)O)NC(=O)[C@H](Cc1ccccc1)NC(=O)[C@@H](Cc1ccccc1)NC(C)=O)C(=O)N[C@H](C(=O)N[C@@H](Cc1c[nH]c2ccccc12)C(=O)O)[C@@H](C)CC (HELM PEPTIDE1{[ac].[dF].F.D.I.I.W}$$$$V2.0) | 6.57 | –
3 | CC[C@H](C)[C@@H](NC(=O)[C@@H](CC(=O)O)NC(=O)[C@H]1CCCN1C(=O)[C@@H](Cc1ccccc1)NC(C)=O)C(=O)N[C@@H](C(=O)N[C@H](Cc1c[nH]c2ccccc12)C(=O)O)[C@@H](C)CC | – | pIC50 (Endothelin-1 receptor [2]): 7.82; pIC50 (Endothelin-1 receptor [1]; nih3t3): 7.35
4 | CC[C@H](C)[C@H](NC(=O)[C@H](CC(=O)O)NC(=O)[C@H](CCc1ccccc1)NC(=O)[C@@H](Cc1ccccc1)NC(C)=O)C(=O)N[C@H](C(=O)N[C@@H](Cc1c[nH]c2ccccc12)C(=O)O)[C@@H](C)CC | 7.15 | –
5 | CC[C@H](C)[C@H](NC(=O)[C@H](CC(=O)O)NC(=O)[C@H](CC(N)=O)NC(=O)[C@@H](Cc1ccccc1)NC(C)=O)C(=O)N[C@H](C(=O)N[C@@H](Cc1c[nH]c2ccccc12)C(=O)O)[C@@H](C)CC | 7.12 | –
6 | CC[C@H](C)[C@H](NC(=O)[C@H](CC(=O)O)NC(=O)[C@H](Cc1ccc(O)cc1)NC(=O)[C@@H](Cc1ccccc1)NC(C)=O)C(=O)N[C@H](C(=O)N[C@@H](Cc1c[nH]c2ccccc12)C(=O)O)[C@@H](C)CC | 7.11 | –
7 | CC[C@H](C)[C@H](NC(=O)[C@H](CCc1ccccc1)NC(=O)[C@H](CC(=O)O)NC(=O)[C@H](CCCN)NC(=O)[C@@H](Cc1ccccc1)NC(C)=O)C(=O)N[C@@H](Cc1c[nH]c2ccccc12)C(=O)O | 6.94 | –
8 | CC[C@H](C)[C@H](NC(=O)[C@H](CC(=O)O)NC(=O)CN(Cc1ccccc1)C(=O)[C@@H](Cc1ccccc1)NC(C)=O)C(=O)N[C@H](C(=O)N[C@@H](Cc1c[nH]c2ccccc12)C(=O)O)[C@@H](C)CC | 7.92 | pIC50 (Endothelin-1 receptor [2]): 7.52
9 | CC[C@H](C)[C@H](NC(=O)[C@H](CC(=O)O)NC(=O)[C@H](C)NC(=O)[C@@H](Cc1ccccc1)NC(C)=O)C(=O)N[C@H](C(=O)N[C@@H](Cc1c[nH]c2ccccc12)C(=O)O)[C@@H](C)CC (HELM PEPTIDE1{[ac].[dF].A.D.I.I.W}$$$$V2.0) | 7.24 | –
10 | CC[C@H](C)[C@H](NC(=O)[C@H](CC(=O)O)NC(=O)[C@H](CCCN)NC(=O)[C@@H](Cc1ccccc1)NC(C)=O)C(=O)N[C@H](C(=O)N[C@@H](Cc1c[nH]c2ccccc12)C(=O)O)[C@@H](C)CC (HELM PEPTIDE1{[ac].[dF].[Orn].D.I.I.W}$$$$V2.0) | – | pIC50 (Endothelin-1 receptor [3]): 6.64
11 | CC[C@H](C)[C@H](NC(=O)[C@H](CC(=O)O)NC(=O)[C@H](CCCN)NC(=O)[C@@H](Cc1ccc(O)cc1)NC(C)=O)C(=O)N[C@H](C(=O)N[C@@H](Cc1c[nH]c2ccccc12)C(=O)O)[C@@H](C)CC | 7.59 | pIC50 (Endothelin-1 receptor [2]): 6.40
12 | CC[C@H](C)[C@H](NC(=O)[C@H](CC(=O)O)NC(=O)[C@H](Cc1c[nH]c2ccccc12)NC(=O)[C@@H](Cc1ccccc1)NC(C)=O)C(=O)N[C@H](C(=O)N[C@@H](Cc1c[nH]c2ccccc12)C(=O)O)[C@@H](C)CC | 7.10 | –
13 | CC[C@H](C)[C@H](NC(=O)[C@H](CC(=O)O)NC(=O)[C@@H](Cc1ccccc1)NC(=O)[C@@H](Cc1ccccc1)NC(C)=O)C(=O)N[C@H](C(=O)N[C@@H](Cc1c[nH]c2ccccc12)C(=O)O)[C@@H](C)CC (HELM PEPTIDE1{[ac].[dF].[dF].D.I.I.W}$$$$V2.0) | 7.01 | –
